Experimental data reported in patent US6069132A, “Phosphazole compounds” (priority 1997, dated 2000).
In brackets after ≈: the same amount, converted by molar mass.

How the values were obtained:
HCMV = conditions: cited from earlier work
[1] = Cytotoxicity on static Vero cells; assay type: cell-based; conditions: african green monkey, Table 4, 50% cell death (static cells), read-out: TC50 Static Vero
Procedure: (§1) Cell Culture. Vero (African Green Monkey kidney cells) and MRC-5 (diploid Human Embryonic Lung fibroblasts) cells were obtained from the American Type Culture Collection (ATCC) and were grown in minimal essential medium (MEM) with Earl's salts and glutamine (GIBCO BRL, Life Technologies, Inc.) with 10% heat inactivated fetal bovine serum (GIBCO BRL) and penicillin (100 μg/mL)/streptomycin (100 μg/mL).
(§2) Cytotoxicity Analysis. The cytotoxicity of the compound was assayed using few the CellTiter 96™ Aqueous Non-Radioactive Cell Proliferation (MTS) Assay (Promega). Briefly, viable cell number was determined by trypan blue staining and cells (MRC-5 and Vero) were resuspended in minimal essential medium (MEM) supplemented with 10% FBS (GIBCO). Eighty microliters of cell suspension (1.7×10^4 cells/well) was dispensed onto a 96-well microtiter plates. At this time 20 μL of drug (or control) was added to appropriate wells. Each concentration was assayed in quadruplicate. The plates were incubated at 37° C. in a humidified 5% CO2 atmosphere for 4 days and MTS assay was performed according to the manufacturer's instructions. The average absorbence of the sample was graphed for each concentration and the data obtained was used to calculate TC50 (the concentration necessary to give one-half maximum growth) for each compound.

[2] = Cytotoxicity on static MRC-5 cells; assay type: cell-based; conditions: human, Table 4, 50% cell death (static cells), read-out: TC50 Static MRC-5
Procedure: as §1, §2

HSV-1 = HSV-1 CPE assay in Vero cells; assay type: cell-based; conditions: Human alphaherpesvirus 1, Vero
[3] = Cytotoxicity on growing Vero cells (MTS); assay type: cell-based; conditions: african green monkey, Table 4, 50% inhibition of logphase growing cells, read-out: TC50 Growing Vero
Procedure: as §1, §2

HSV-2 = HSV-2 CPE assay in Vero cells; assay type: cell-based; conditions: Human alphaherpesvirus 2, Vero
[4] = Cytotoxicity on growing MRC-5 cells (MTS); assay type: cell-based, human; conditions: human, mrc-5 cells; Table 4; 50% inhibition of logphase growing cells; read-out: TC50 Growing MRC-5
Procedure: as §1, §2

TNFα [5] = test: Inhibition of TNFα production in LPS-stimulated THP-1 cells (ELISA); assay type: cell-based, human; conditions: for IC50: Homo sapiens, Table 2, LPS-stimulated THP-1, 6 h post-stimulation
Procedure: (§3) Cell line. THP-1 cells (human monocyte) were maintained in RPMI 1640 medium containing 25 mM Hepes buffer, 2 mM L-glutamine, 50 units of penicillin per mL, 50 μg of streptomycin sulfate per mL, and 10% heat-inactivated fetal bovine serum (FBS) in a humidified incubator containing 5% CO2. The cells were split 1:4 weekly as recommended by the American Type Culture Collection (ATCC).
(§4) TNFα assay. Varying concentrations of the test compound or control compound were added to THP-1 cells plated at a density of 1×10^6cells/mL in 600 μL of 10% RPMI in a 48 well plate. After one hour the cells were stimulated with 0.5 μg of lipopolysaccharide (LPS; Sigma, lot number 43H40491) per mL. Six hours post-stimulation supernatants were collected and assayed for TNFα or IL-1β production using a commercially available cytokine detection ELISA (Enzyme Linked Immunosorbent Assay) kit according to the suppliers instructions. A suitable assay kit may be obtained from Biosource, or R and D systems. A novel xanthine analog, HWA-3138, having the structure (as shown below) was used as the control compound (30) in this study to monitor the response of the THP-l cells. Xanthine analogs are known inhibitors of TNFα but not IL-1β. In the following experiments compound HWA-3138 was used as a positive control. [drawing 58]
Time of Addition. Varying concentrations of test or control compounds were added to THP-1 cells (1×10^6 cells/mL) at different time points post-stimulation using 0.5 μg of LPS (Sigma, lot number 43H40491) per mL in 300 μL of 10% RPMI in a 48 well plate. Six hours post-stimulationsupernatants were collected and assayed for TNFα or IL-1β production using a Biosource cytokine detection ELISA (Enzyme Linked Immunosorbent Assay) kit according to the supplier's instructions.
The membrane bound TNFα was separated from the free TNFα in the culture medium at 6 hours post-LPS stimulation as follows: The corresponding cells were centrifuged at 3500 rpm (~1,000×g) for 6 min. The supernatants were removed and the cell pellets were then resuspended in 200 μL of 0.25 mM Tris-HCl (pH 7.4). The cell associated TNFα was prepared by freezing the cell suspension in dry ice/ethanol and thawing at 37° C. three times with Vortexing in-between freeze-thaw cycles. Each cycle was 4-5 min apart.
To determine the long-term effects of phosphazole compound T70241 on TNFα production after a single treatment, THP-1 cells were pre-incubated with T70241, washed and resuspended in drug free medium. The xanthine analog HWA-3138 was used as a control.

IL-1β = test: Inhibition of IL-1β production in LPS-stimulated THP-1 cells (ELISA); assay type: cell-based, human; conditions: for IC50: Homo sapiens, Table 2, LPS-stimulated THP-1, 6 h post-stimulation, read-out: IC50 IL-1β in THP-1 cells
Procedure: as §3
as §4, with “58] […]” for “58]”
THP-1 cells were cultured and IL-1β inhibition assays were conducted as described for TNFα in Example 46, except a commercially available IL-1β assay kit, obtained from R and D Systems, Minneapolis, Minn., was used instead of the TNFα kit.
With reference now to FIG. 8, for each concentration of T70241 tested, the membrane bound IL-1β was separated from the IL-1β found free in the culture medium at 6 hours post-LPS stimulation as described in Example 46 for TNFα, and the percent inhibition of each fraction was graphed.

TNFα [6] = conditions: by inhibition of PDE activity; cited from earlier work
[7] = tested on: adenosine deaminase (ADA); test: Enzymatic hydrolysis by adenosine deaminase; assay type: in vitro ADME, calf; conditions: 25° C.
Procedure: Adenosine deaminase (ADA, adenosine aminohydrolase, EC 3.5.4.4, SIGMA) from calf intestinal mucosa was prepared to give a stock of 1 mg/mL (250-280 units/mL) in pH 7.4, 0.01 M phosphate buffer. The relative rates of hydrolysis of selected compounds by ADA and characterization of the products was carried as follows. […] Fifty-microliter aliquots were taken at time intervals and hydrolysis was quenched by mixing with 0.45 mL of distilled water and then the diluted sample was heated at 95° C. for 6 min to ensure enxyme deactivation. The decrease in substrate concentration and the formation of the products was followed over time by UV-spectroscopic analysis. Adenosine was used as a control in this experiment and one unit is defined as the amount of ADA that hydrolyzes 1.0 μmol of adenosine/min at 25° C.

[8] = Cytotoxicity on growing THP-1 cells (MTS assay); assay type: cell-based, human; conditions: human, thp-1 cells; Table 2; drug dose required to inhibit logphase growing cells by 50%; read-out: TC50 Growing THP-1
Procedure: Cytotoxicity Analysis. The cytotoxicity of the compounds were assayed using the CellTiter 96™ Aqueous Non-Radioactive Cell Proliferation (MTS) Assay kit obtained from Promega (Madison, Wis.) following the instructions provided by the supplier. The viable cell number was determined by trypan blue staining and cells (THP-1) were resuspended in PRMI supplemented with 10% FBS (GIBCO). Eighty microliters of cell suspension (1.7×10^4cells/well) was dispensed onto a 96-well microtiter plates. At this time 20 μL of drug (or control) was added to appropriate wells. Each concentration was assayed in quadruplicate. The plates were incubated at 37° C. in a humidified 5% CO2 atmosphere for 4 days and MTS assay […] for each concentration and the data obtained was used to calculate TC50 (the concentration of the compound necessary to inhibit the cell growth by 50%) for each compound.

HCMV (Town strain) = test: HCMV plaque reduction (CPE) assay in MRC-5 cells; assay type: cell-based, human cytomegalovirus; conditions: Human betaherpesvirus 5, MRC5; Table 4; read-out: IC50 HCMV
Procedure: The adenine analog phosphazole (compound T70241) was assayed for antiviral activity using a HCMV plaque reduction assay, in accordance with known methods such as that described in U.S. Pat. No. 5,446,045.
as §1
CMV Cytopathic Effect (CPE) Assay. Assays were performed essentially as described by Lewis et al. (111), which report is incorporated herein by reference. MRC-5 cells (100,000 cells/well) were seeded in 24-well plates overnight. Medium was then removed and wells were rinsed once with 250 μL of 2% FCS-MEM before adding 40-50 pfu of HCMV (Town strain) to each well. After 2 hours of virus adsorption, the medium was removed and the cells were rinsed once with 2% FCS-MEM. Varying concentrations of the phosphazole compound in the culture medium (1 mL) was then added to appropriate wells and plates were incubated for 5-6 days at 37° C. in a humidified 5% CO2 atmosphere. Each concentration was tested in duplicate wells.
The extent of the plaque reduction was quantitated by removing the media and adding 200 μL of 0.1% crystal violet in 20% methanol to all wells. The crystal violet was then removed after 10 min staining at room temperature by rinsing in the sink with tap water and the plates dried overnight. The plaques were then counted using a Nikon inverted microscope.

NC(=O)c1cn([C@H]2C[C@H](O)[C@@H](CO)O2)c2ncnc(N)c12 [2'-deoxysangivamycin]
activity against HCMV (HCMV): selective activity against HCMV

Nc1nc2c(ncn2COCCO)c(=O)[nH]1 [ACV, acyclovir, reference compound]
CC50 at 96 h [1]: > 250 µg/mL | CC50 at 96 h [2]: > 250 µg/mL | IC50 (HSV-1; Table 4): 0.1 µg/mL (≈ 0.444 µM) | CC50 at 96 h [3]: > 250 µg/mL | IC50 (HSV-2; Table 4): 0.74 µg/mL (≈ 3.29 µM) | CC50 at 96 h [4]: > 250 µg/mL

Nc1ncnc2nc[nH]c12 [Adenine, reference compound]
IC50 (TNFα [5]): > 250 µg/mL | IC50 (IL-1β): > 250 µg/mL

Nc1ncnc2c1ncn2[C@@H]1O[C@H](CO)[C@@H](O)[C@H]1O [Adenosine, reference compound]
IC50 (TNFα [5]): 100 µg/mL (≈ 374 µM) | suppression of TNFα production (TNFα [6]): suppression of TNFα production | rate of hydrolysis by ADA [7]: 1.0 pmole/unit per min | IC50 (IL-1β): > 250 µg/mL

Cn1c(=O)n(CCCCC(C)(C)O)c(=O)c2nc[nH]c21 [HWA-3138, reference compound]
inhibition of TNFα production (TNFα [5]; 10 and 100 μg/mL, THP-1, 6 h post-stimulation (FIG. 2)): no inhibition | IC50 (TNFα [5]): 255 µg/mL (≈ 908 µM) | inhibition of IL-1β production (IL-1β; 10-250 μg/mL, THP-1 (FIG. 6)): does not inhibit IL-1β production | IC50 (IL-1β): > 500 µg/mL | CC50 at 96 h [8]: 316 µg/mL (≈ 1130 µM)

O=c1[nH]cnc2pc[nH]c12 (stereo not drawn) [T70256, 1,3-azaphospholo[4,5-d]pyrimidin-7(1H,6H)-one]
IC50 (TNFα [5]): 168 µg/mL (≈ 1100 µM) | IC50 (IL-1β): 170 µg/mL (≈ 1110 µM)

Nc1ncnc2pcn([C@@H]3O[C@H](CO)[C@@H](O)[C@H]3O)c12 (stereo partly drawn) [T70264, 7-Amino-1-(β-D-ribofuranosyl)-1,3-azaphospholo-[4,5-d]pyrimidine]
IC50 (TNFα [5]): 126 µg/mL (≈ 444 µM) | IC50 (IL-1β): > 100 µg/mL | CC50 at 96 h [8]: 118 µg/mL (≈ 413 µM)

Nc1ncnc2pcn([C@H]3C[C@H](O)[C@@H](CO)O3)c12 (stereo partly drawn) [T70265, 7-Amino-1-(2-deoxy-β-D-eythro-pentofuranosyl)-1,3-azaphospholo[4,5-d]pyrimidine]
IC50 (TNFα [5]): 26.2 µg/mL (≈ 97.6 µM) | IC50 (IL-1β): > 100 µg/mL | CC50 at 96 h [8]: 105 µg/mL (≈ 390 µM)

Nc1ncnc2pcn(COCCO)c12 (stereo not drawn) [T70268, 7-Amino-1-[(2-hydroxyethoxy)methyl]-1,3-azaphospholo-[4,5-d]pyrimidine]
IC50 (TNFα [5]): > 100 µg/mL | CC50 at 96 h [1]: > 50 µg/mL | CC50 at 96 h [2]: > 50 µg/mL | IC50 (HSV-1; Table 4): > 50 µg/mL | CC50 at 96 h [3]: > 50 µg/mL | IC50 (HCMV (Town strain)): > 50 µg/mL | IC50 (HSV-2; Table 4): > 50 µg/mL | IC50 (IL-1β): > 100 µg/mL | CC50 at 96 h [4]: > 50 µg/mL

Nc1ncnc2pcn(COC(CO)CO)c12 (stereo not drawn) [T70269, 7-Amino-1-[(1,3-dihydroxy-2-propoxy)methyl]-1,3-azaphospholo [4,5-d]pyrimidine]
IC50 (TNFα [5]): > 100 µg/mL | CC50 at 96 h [1]: > 50 µg/mL | CC50 at 96 h [2]: > 50 µg/mL | IC50 (HSV-1): 2.75 µg/mL (≈ 10.7 µM) | CC50 at 96 h [3]: 41.4 µg/mL (≈ 162 µM) | IC50 (HCMV (Town strain)): 26.1 µg/mL (≈ 102 µM) | IC50 (HSV-2): 27.8 µg/mL (≈ 108 µM) | IC50 (IL-1β): > 100 µg/mL | CC50 at 96 h [4]: > 50 µg/mL

O=c1[nH]c(=O)c2[nH]cpc2[nH]1 (stereo not drawn) [T70270, 1,3-Azaphospholo[4,5-d]pyrimidine-5,7(1H, 4H,6H) -dione]
IC50 (TNFα [5]): 239 µg/mL (≈ 1410 µM) | IC50 (IL-1β): > 250 µg/mL

Cn1c(=O)c2c(pcn2C)n(C)c1=O (stereo not drawn) [T70271, 1,4,6-Trimethyl-1,3-azaphospholo[4,5-d]pyrimidine-5,7-dione]
IC50 (TNFα [5]): 37.3 µg/mL (≈ 177 µM) | IC50 (IL-1β): > 250 µg/mL

N#Cc1cn([C@@H]2O[C@H](CO)[C@@H](O)[C@@H]2O)c2ncnc(N)c12 [ara-toyocamycin]
activity against HCMV (HCMV): selective activity against HCMV

Nc1ncnc2c1ccn2[C@@H]1O[C@H](CO)[C@@H](O)[C@@H]1F [arafluoro-tubercidin]
activity against HCMV (HCMV): selective activity against HCMV

CC(=O)CCCCn1c(=O)c2c(ncn2C)n(C)c1=O [pentoxifylline]
suppression of TNFα production (TNFα [6]): suppression of TNFα production
